Molecular target: T1, Purified ERAP1 (37-941)-10His (ERAP1) (Homo sapiens, UniProt Q9NZ08)
T1 construct: Purified ERAP1 (37-941)-10His (ERAP1)
Assay: ERAP1 mediated hydrolysis of an amide substrate (10-mer inhibition assay), biochemical system
Conditions: 10-mer substrate, 23° C., 1 h, excitation 279 nm / emission 355 nm; read-out: IC50 vs Decapeptide WRVYEKC(Dnp)ALK-acid (where Dnp is Dinitrophenyl maleimide) (10-mer)
Protocol: However, as ERAP1 hydrolyses the N-terminal amide bond and tryptophan is released this internal quenching is lost and the reaction is monitored by the increase in tryptophan fluorescence over the course of the assay. For the purposes of this application this assay is referred to as the “10mer inhibition assay” and compound potencies are calculated and expressed as IC50 as would be familiar to a person skilled in the art.
Biological Assay 1: ERAP1 Mediated Hydrolysis of an Amide Substrate Measured in a Biochemical System
Decapeptide WRVYEKC(Dnp)ALK-acid (where Dnp is Dinitrophenyl maleimide) (10-mer) L-Leucine 7-amido-4-methylcoumarin (L-AMC)
12.5 μL ERAP1 enzyme in 1×AB was combined with 250 nL test compound in DMSO. […] For detection, plates were read at excitation 365 nm and emission 442 nm (L-AMC) or excitation 279 nm and emission 355 nm (10-mer).

T1 sequence (Q9NZ08 37-941): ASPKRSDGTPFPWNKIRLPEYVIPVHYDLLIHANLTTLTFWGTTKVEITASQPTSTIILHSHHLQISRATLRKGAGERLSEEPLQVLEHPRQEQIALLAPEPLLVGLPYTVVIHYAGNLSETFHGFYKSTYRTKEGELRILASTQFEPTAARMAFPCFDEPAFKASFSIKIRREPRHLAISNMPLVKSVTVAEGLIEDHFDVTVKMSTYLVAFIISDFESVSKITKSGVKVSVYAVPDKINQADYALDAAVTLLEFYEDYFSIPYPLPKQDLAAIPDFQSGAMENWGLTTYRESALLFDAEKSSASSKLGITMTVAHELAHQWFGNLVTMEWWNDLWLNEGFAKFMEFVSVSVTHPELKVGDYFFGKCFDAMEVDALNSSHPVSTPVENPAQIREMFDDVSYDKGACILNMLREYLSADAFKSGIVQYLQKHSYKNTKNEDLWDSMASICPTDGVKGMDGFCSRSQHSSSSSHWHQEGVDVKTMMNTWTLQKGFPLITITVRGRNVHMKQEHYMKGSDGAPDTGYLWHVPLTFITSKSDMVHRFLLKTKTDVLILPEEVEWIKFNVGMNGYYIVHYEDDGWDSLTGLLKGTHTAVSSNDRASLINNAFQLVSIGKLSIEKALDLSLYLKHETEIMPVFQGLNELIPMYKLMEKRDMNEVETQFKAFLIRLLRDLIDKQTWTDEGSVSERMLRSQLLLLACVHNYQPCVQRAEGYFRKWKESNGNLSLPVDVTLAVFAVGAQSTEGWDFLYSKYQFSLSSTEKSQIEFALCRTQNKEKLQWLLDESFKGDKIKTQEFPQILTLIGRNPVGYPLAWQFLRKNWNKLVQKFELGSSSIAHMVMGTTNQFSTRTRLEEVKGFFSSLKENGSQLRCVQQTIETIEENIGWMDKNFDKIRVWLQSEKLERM

SMILES	IC50 [nM]
CCc1ccc(C(=O)O)cc1S(=O)(=O)Nc1cc(-c2ncnn2C)ccc1N1CCCCC1 [Example 288, 4-ethyl-3-(N-(5-(1-methyl-1,2,4-triazol-5-yl)-2-(piperidin-1-yl)phenyl)sulfamoyl)benzoic acid]	< 500
COc1ccc(C(=O)O)cc1S(=O)(=O)Nc1cc(C(F)(F)F)ccc1N1C[C@H](C)C[C@H](C)C1 [Example 6, 3-(N-(2-(cis-3,5-dimethylpiperidin-1-yl)-5-(trifluoromethyl)phenyl)sulfamoyl)-4-methoxybenzoic acid]	< 500
O=C(O)c1ccc(C(F)(F)F)c(S(=O)(=O)Nc2cc(C(F)(F)F)ccc2N2CCCCC2)c1 [Example 200, 3-(N-(2-(piperidin-1-yl)-5-(trifluoromethyl)phenyl)sulfamoyl)-4-(trifluoromethyl)benzoic acid]	< 5000
CCc1ccc(C(=O)O)cc1S(=O)(=O)Nc1cc(-c2cn(C)nn2)ccc1N1CCCCC1 [Example 273, 4-ethyl-3-(N-(5-(1-methyl-1,2,3-triazol-4-yl)-2-(piperidin-1-yl)phenyl)sulfamoyl)benzoic acid]	< 500
Cc1cc(C#N)cc(NS(=O)(=O)c2cc(C(=O)O)ccc2C2CC2)c1N1CCCCC1 [Example 336, 3-(N-(5-cyano-3-methyl-2-(piperidin-1-yl)phenyl)sulfamoyl)-4-cyclopropylbenzoic acid]	< 500
CSc1ccc(C(=O)O)cc1S(=O)(=O)Nc1cc(C(F)(F)F)ccc1N1CCCCC1 [Example 232, 4-(methylthio)-3-(N-(2-(piperidin-1-yl)-5-(trifluoromethyl)phenyl)sulfamoyl)benzoic acid]	< 500
CCc1ccc(C(=O)O)cc1S(=O)(=O)Nc1cc(C(F)(F)F)ccc1N1CCCCC1 [Example 1, 4-Ethyl-3-(N-(2-(piperidin-1-yl)-5-(trifluoromethyl)phenyl)sulfamoyl)benzoic acid]	< 500
CCc1ccc(C(=O)O)cc1S(=O)(=O)Nc1cc(S(C)(=O)=O)ccc1N1CC(C)(O)C1 [Example 255, 4-ethyl-3-(N-(2-(3-hydroxy-3-methylazetidin-1-yl)-5-(methylsulfonyl)phenyl)sulfamoyl)benzoic acid]	< 5000
Cc1ccc(C(=O)O)cc1S(=O)(=O)Nc1cc(C(F)(F)F)ccc1N1CCCCCC1 [Example 62, 3-(N-(2-(azepan-1-yl)-5-(trifluoromethyl)phenyl)sulfamoyl)-4-methylbenzoic acid]	< 500
CCc1ccc(C(=O)O)cc1S(=O)(=O)Nc1cc(C#N)ccc1N1CCC[C@@H](O)C1 [Example 260, I-3-(N-(5-cyano-2-(3-hydroxypiperidin-1-yl)phenyl)sulfamoyl)-4-ethylbenzoic acid]	< 500
COc1ccc(C(=O)O)cc1S(=O)(=O)Nc1cc(C(F)(F)F)ccc1N1CCC(O)(C2CC2)CC1 [Example 185, 3-(N-(2-(4-cyclopropyl-4-hydroxypiperidin-1-yl)-5-(trifluoromethyl)phenyl)sulfamoyl)-4-methoxybenzoic acid]	< 500
CCCCc1ccc(C(=O)O)cc1S(=O)(=O)Nc1cc(C(F)(F)F)ccc1N1CCCCC1 [Example 268, 4-butyl-3-(N-(2-(piperidin-1-yl)-5-(trifluoromethyl)phenyl)sulfamoyl)benzoic acid]	< 500
COc1ccc(C(=O)O)cc1S(=O)(=O)Nc1cc(C(F)(F)F)cc(F)c1N1CCCCC1 [Example 184, 3-(N-(3-fluoro-2-(piperidin-1-yl)-5-(trifluoromethyl)phenyl)sulfamoyl)-4-methoxybenzoic acid]	< 500
COc1ccc(C(=O)O)cc1S(=O)(=O)Nc1cc(S(C)(=O)=O)ccc1N1CCC[C@H](O)C1 [Example 246, (S)-3-(N-(2-(3-hydroxypiperidin-1-yl)-5-(methylsulfonyl)phenyl)sulfamoyl)-4-methoxybenzoic acid]	< 500
CCc1ccc(C(=O)O)cc1S(=O)(=O)Nc1cc(-c2ccnn2C)ccc1N1CCCCC1 [Example 281]	< 500
CS(=O)(=O)c1ccc(N2CCC(F)CC2)c(NS(=O)(=O)c2cc(C(=O)O)ccc2C2CC2)c1 [Example 320, 4-cyclopropyl-3-(N-(2-(4-fluoropiperidin-1-yl)-5-(methylsulfonyl)phenyl)sulfamoyl)benzoic acid]	< 500
O=C(O)c1ccc(C2CCO2)c(S(=O)(=O)Nc2cc(C(F)(F)F)ccc2N2CCCCC2)c1 (centres unmarked) [Example 272, 4-(oxetan-2-yl)-3-(N-(2-(piperidin-1-yl)-5-(trifluoromethyl)phenyl)sulfamoyl)benzoic acid]	< 500
N#Cc1ccc(N2CCC[C@@H](F)C2)c(NS(=O)(=O)c2cc(C(=O)O)ccc2C2CC2)c1 [Example 312, I-3-(N-(5-cyano-2-(3-fluoropiperidin-1-yl)phenyl)sulfamoyl)-4-cyclopropylbenzoic acid]	< 500

SMILES	IC50 [nM]
COc1ccc(C(=O)O)cc1S(=O)(=O)Nc1cc(C(F)(F)F)ccc1N1CCC(C#N)CC1 [Example 237, 3-(N-(2-(4-cyanopiperidin-1-yl)-5-(trifluoromethyl)phenyl)sulfamoyl)-4-methoxybenzoic acid]	< 500
CCc1ccc(C(=O)O)cc1S(=O)(=O)Nc1cc(-c2cnoc2)ccc1N1CCCCC1 [Example 297, 4-ethyl-3-(N-(5-(isoxazol-4-yl)-2-(piperidin-1-yl)phenyl)sulfamoyl)benzoic acid]	< 500
CS(=O)(=O)c1ccc(N2CCC(F)(F)CC2)c(NS(=O)(=O)c2cc(C(=O)O)ccc2C2CC2)c1 [Example 309, 4-cyclopropyl-3-(N-(2-(4,4-difluoropiperidin-1-yl)-5-(methylsulfonyl)phenyl)sulfamoyl)benzoic acid]	< 500
CCc1ccc(C(=O)O)cc1S(=O)(=O)Nc1cc(-c2cnccn2)ccc1N1CCCCC1 [Example 290, 4-ethyl-3-(N-(2-(piperidin-1-yl)-5-(pyrazin-2-yl)phenyl)sulfamoyl)benzoic acid]	< 500
O=C(O)c1ccc(OC(F)(F)F)c(S(=O)(=O)Nc2cc(C(F)(F)F)ccc2N2CCCCC2)c1 [Example 4, 3-(N-(2-(piperidin-1-yl)-5-(trifluoromethyl)phenyl)sulfamoyl)-4-(trifluoromethoxy)benzoic acid]	< 500
COc1ccc(C(=O)O)cc1S(=O)(=O)Nc1cc(C#N)ccc1N1CCC(F)(F)CC1 [Example 221, 3-(N-(5-cyano-2-(4,4-difluoropiperidin-1-yl)phenyl)sulfamoyl)-4-methoxybenzoic acid]	< 500
CCc1ccc(C(=O)O)cc1S(=O)(=O)Nc1cc(C(F)(F)F)ccc1N1CCC[C@H](O)C1 [Example 250, (S)-4-ethyl-3-(N-(2-(3-hydroxypiperidin-1-yl)-5-(trifluoromethyl)phenyl)sulfamoyl)benzoic acid]	< 500
COc1ccc(C(=O)O)cc1S(=O)(=O)Nc1cc(C(F)(F)F)ccc1N1CCC(C)(O)CC1 [Example 28, 3-(N-(2-(4-hydroxy-4-methylpiperidin-1-yl)-5-(trifluoromethyl)phenyl)sulfamoyl)-4-methoxybenzoic acid]	< 500
COc1ccc(C(=O)O)cc1S(=O)(=O)Nc1cc(C(F)(F)F)ccc1N1CCC[C@H](O)C1 [Example 244, (S)-3-(N-(2-(3-hydroxypiperidin-1-yl)-5-(trifluoromethyl)phenyl)sulfamoyl)-4-methoxybenzoic acid]	< 500
CCc1ccc(C(=O)O)cc1S(=O)(=O)Nc1cc(-n2cnnn2)ccc1N1CC(C)(O)C1 [Example 257, 4-ethyl-3-(N-(2-(3-hydroxy-3-methylazetidin-1-yl)-5-(tetrazol-1-yl)phenyl)sulfamoyl)benzoic acid]	< 500
COc1ccc(C(=O)O)cc1S(=O)(=O)Nc1cc(C(F)(F)F)ccc1N1CCCC(C)(O)C1 (centres unmarked) [Example 29, 3-(N-(2-(3-hydroxy-3-methylpiperidin-1-yl)-5-(trifluoromethyl)phenyl)sulfamoyl)-4-methoxybenzoic acid]	< 500
CCc1ccc(C(=O)O)cc1S(=O)(=O)Nc1c(N2CCCCC2)ccc(-c2cnoc2C)c1F [Example 305, 4-ethyl-3-(N-(2-fluoro-3-(5-methylisoxazol-4-yl)-6-(piperidin-1-yl)phenyl)sulfamoyl)benzoic acid]	< 500
CCc1ccc(C(=O)O)cc1S(=O)(=O)Nc1cc(-c2ccns2)ccc1N1CCCCC1 [Example 286, 4-ethyl-3-(N-(5-(isothiazol-5-yl)-2-(piperidin-1-yl)phenyl)sulfamoyl)benzoic acid]	< 500
CCc1ccc(C(=O)O)cc1S(=O)(=O)Nc1cc(-n2cnnn2)ccc1N1CCC[C@@H](O)C1 [Example 252, I-4-ethyl-3-(N-(2-(3-hydroxypiperidin-1-yl)-5-(tetrazol-1-yl)phenyl)sulfamoyl)benzoic acid]	< 500
CCc1ccc(C(=O)O)cc1S(=O)(=O)Nc1cc(-c2cnoc2C)ccc1N1CCCCC1 [Example 279, 4-ethyl-3-(N-(5-(5-methylisoxazol-4-yl)-2-(piperidin-1-yl)phenyl)sulfamoyl)benzoic acid]	< 500
O=C(O)c1ccc(C2CC2)c(S(=O)(=O)Nc2cc(C(F)(F)F)ccc2N2CCCCC2)c1 [Example 267, 4-cyclopropyl-3-(N-(2-(piperidin-1-yl)-5-(trifluoromethyl)phenyl)sulfamoyl)benzoic acid]	< 500
COc1ccc(C(=O)O)cc1S(=O)(=O)Nc1cc(C#N)ccc1N1CCC[C@H](O)C1 [Example 264, (S)-3-(N-(5-cyano-2-(3-hydroxypiperidin-1-yl)phenyl)sulfamoyl)-4-methoxybenzoic acid]	< 500
